According to patent US20260072027A1, “Peptides And Method” (Queen Mary University of London, priority 2022, published 2026):
Where no end group is shown, it is not given here.

Legend:
[1] = test system: CD4+ and CD8+ T-cells and IgG autoantibodies; test: Overlap of CD4+, CD8+ and IgG antibody responses (Venn analysis); format: cell-based, human; conditions: type 1 diabetes; for patients with overlapping (concordant) CD4+ and CD8+ responses to the peptide: Study cohort 2, SI >1
Excerpt: FIG. 13. Venn diagrams of CD4^+, CD8^+ and antibody response to oxPTM-INSPs. Panels a, b, and c show the overlap between IgG autoantibody and T-cell (CD4^+ and CD8^+) responses specific to oxPTM-INSP-3 (a), Nt-INSP-4 (b) and oxPTM-INSP-6 (c). Panels d, e, and f display the overlap between T-cell responses to the three insulin peptides and IgG to oxPTM-INS modified by hydroxyl radical (^●OH-INS). […] There is concordance between reactivity to oxPTM-INS and CD4^+ and CD8^+ reactivity for all three tested peptides (7/17, 8/18 and 8/18 for oxPTM-INSP-3, Nt-INSP-4 and oxPTM-INSP-6, respectively). The stimulatory index >1 was used for definition of positive T-cell response.
Correlation between T-cell stimulation and antibody response. Subjects evaluated for T-cell stimulation were also tested for antibody reactivity to either oxPTM-INSPs or oxidised intact insulin (oxPTM-INS) to assess correlations between humoral and cellular responses (FIG. 11-e-f). In study cohort 2, antibody reactivity to oxPTM-INSP-6 was the highest as observed in the study cohort 1, with 11/18 (61.1%) binding to at least one oxPTM-INSP-6 derivatives (p<0.001 oxPTM-INSP-6 vs. Nt-INSP-6). Detailed analysis of autoantibody response in this cohort is described in the ESM (ESM results Antibody binding to oxPTM-INSPs in Study cohort 2).
We then analysed the extent of correlation between CD4^+, CD8^+ and IgG antibody responses. […] The CD4^+ T cell response to Nt-INSP-4 frequently overlapped with CD8^+ (13/18 [72.2%]), and to a lesser extent to antibodies (7/18 [38.8%]). […] CD4^+ response to oxPTM-INSP-6 was linked to both CD8^+ and/or antibodies: […] patients had concordant CD4^+ and CD8^+ responses, while 9/18 (50%) patients had concordant CD4^+ and antibody responses. […] CD4^+ T-cell stimulation to Nt-INSP-4, oxPTM-INSP-6 and oxPTM-INSP-3 was associated with antibody reactivity to oxPTM-INS in 8/18 (44.4%), 8/18 (44.4%) and 7/18 (38.9%) type 1 diabetes patients.

CD4+ T-cells (PBMCs) = test: In vitro peptide stimulation and T-cell proliferation assay, CD4+; format: cell-based, human; conditions: for CD4+ mean SI (stimulation index): Study cohort 2
In short: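 CellTrace Violet-labelled fresh PBMCs from type 1 diabetic and healthy donors cultured 7 days in 5% autologous plasma with or without 20 μg/ml insulin peptides. Proliferation measured by flow cytometry as dye dilution within the CD4+ or CD8+ subset. Stimulation index = % proliferation stimulated/% unstimulated.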

Substance | concordance between reactivity to oxPTM-INS and CD4+ and CD8+ reactivity (patients/patients) ([1]; Study cohort 2) | patients with CD4+ T-cell stimulation associated with antibody reactivity to oxPTM-INS ([1]; Study cohort 2) [%] | patients with CD4+, CD8+ T-cells to the peptide and autoantibodies to oxPTM-INS simultaneously ([1]; Study cohort 2) [%] | patients with concordant CD4+, CD8+ and IgG antibody response to the peptide ([1]; Study cohort 2) [%] | patients with overlapping (concordant) CD4+ and CD8+ responses to the peptide [1] [%] | CD4+ T-cell response, subjects with SI > 3 (%) (CD4+ T-cells (PBMCs); Controls (N = 11)) | CD4+ T-cell response, subjects with SI > 3 (%) (CD4+ T-cells (PBMCs); Type 1 diabetes (N = 18)) | patients with concordant CD4+ and antibody responses to the peptide ([1]; Study cohort 2) [%] | CD4+ T-cell response, subjects with SI > 1 (%) (CD4+ T-cells (PBMCs); Controls (N = 11)) | CD4+ T-cell response, subjects with SI > 5 (%) (CD4+ T-cells (PBMCs); Controls (N = 11)) | CD4+ T-cell response, subjects with SI > 10 (%) (CD4+ T-cells (PBMCs); Controls (N = 11)) | CD4+ T-cell response, subjects with SI > 3 (%) (CD4+ T-cells (PBMCs); Controls (N = 11), listed as Nt-INSP-4) | CD4+ T-cell response, subjects with SI > 1 (%) (CD4+ T-cells (PBMCs); Type 1 diabetes (N = 18)) | CD4+ T-cell response, subjects with SI > 5 (%) (CD4+ T-cells (PBMCs); Type 1 diabetes (N = 18)) | CD4+ T-cell response, subjects with SI > 10 (%) (CD4+ T-cells (PBMCs); Type 1 diabetes (N = 18)) | CD4+ T-cell response, subjects with SI > 3 (%) (CD4+ T-cells (PBMCs); Type 1 diabetes (N = 18), listed as Nt-INSP-4) | CD4+ mean SI (stimulation index) (CD4+ T-cells (PBMCs); controls) | CD4+ mean SI (stimulation index) (CD4+ T-cells (PBMCs); type 1 diabetes)
oxPTM-INSP-3: oxidised forms of insulin peptide 3 (A:12-21), in house oxidised or in silico derivatives (SLYQLENYCN; not fully specified (N-terminus); also: oxidised forms, in house oxidised or in silico derivatives, modified residues not defined) | 7/17 | 38.9 | 22.2 | 5.5 | 50.0 | 9.1% | 22.2% |  |  |  |  |  |  |  |  |  |  | 
LVEALYLVCGERGFFYTPKT [insulin B:11-30 native peptide] | 8/18 | 44.4 | 27.8 | 22.2 | 72.2 | (45.5%) | (66.7%) | 38.8 | (81.8%) | (27.3%) | (9.1%) | 45.5 | (100%) | (5.3%) | (50.0%) | 66.7 | 6.89±3.4 | 119.8±51.69
